Experimental findings from PubChem BioAssay (NCI) are described below.

Holding throughout (test): DTP human tumour cell line panel, 48 h
Assay [1] concerns OVCAR-5 ovarian.
In assay [2] the test system is NCI-H522 lung.
In assay [3] the test system is HCT-15 colon.
Assay [4] concerns HL-60(TB) leukemia.
The test system of assay [5] is ACHN renal.
Assay [6] relates to SR leukemia.
Assay [7] deals with SK-MEL-28 melanoma.
The subject of assay [8] is SN12C renal.
Assay [9] has as its system NCI-H226 lung.
Assay [10] relates to BT-549 breast.

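The compound was tested at five concentrations on cells cultured in 96-well plates, with a 48-hour exposure period. GI50 marks 50% less growth. Definition used: TGI = concentration required for complete inhibition of growth.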

As a reminder, the TGI is the concentration at which net growth stops. On to `S=c1nc(-c2cccnc2)[nH][nH]1`, for which the TGI was > 100 µM in assay [1]; > 1 µM in assay [2]; > 100 µM in assay [3]; > 100 µM in [4]; > 100 µM in assay [5]; > 100 µM in [6]. The total growth inhibition concentration (TGI) in assay [7] and in assay [8] was > 100 µM each time.
Take `C=C=C(C(=O)OC)S(=O)c1ccc([N+](=O)[O-])cc1[N+](=O)[O-]` (centres undefined): the TGI in assay [1] was > 100 µM; in assay [2], 21 µM; in assay [3], 45.3 µM; in assay [4] it was 45.3 µM; in assay [5] it was > 68.5 µM; in assay [6] it was 35.4 µM. Further, the values for the concentration for total growth inhibition (TGI) in assay [7], in assay [9] and in [8] were > 70 µM, > 100 µM and 49 µM, respectively.
What is called GI50 is the concentration giving 50% growth inhibition. As to `Cc1c2ccc(N(C)c3ccnc(Nc4cccc(S(N)(=O)=O)c4)n3)cc2nn1C`, the GI50 was 11.4 µM in [1]; 6.09 µM in [2]; 9.34 µM in assay [3]; 8.44 µM in assay [4]; 8.12 µM in assay [5]; 9.95 µM in assay [7]. Moreover, the figures for the GI50 in [9], in assay [8] and in assay [10] were 6.2 µM, 8.75 µM and 9.48 µM, respectively. For the same compound, the TGI was > 25 µM in assay [1]; 23.7 µM in assay [2]; > 25 µM in assay [3]; > 19.1 µM in assay [4]; > 25 µM in assay [5]; > 25 µM in assay [7]. The concentration for total growth inhibition (TGI) in assay [9], in assay [8] and in assay [10] was > 25 µM each time.
On to `COc1cc(Br)c(C=Nc2cccc3ccc(OS(=O)(=O)c4cccc([N+](=O)[O-])c4)cc23)cc1OC`, for which the concentration for total growth inhibition (TGI) in assay [1], in assay [2], in [3], in assay [5], in [6] and in assay [7] was > 100 µM throughout. Further, the values for the concentration for total growth inhibition (TGI) in assay [9] and in assay [8] were 84.1 µM and > 100 µM, respectively.
On to `COc1ccc(/C=C2\C(=O)N(C(=O)Cc3ccccc3)N=C2C)cc1OC`, for which the total growth inhibition concentration (TGI) in assay [1], in [2], in assay [3], in assay [4], in assay [5] and in [6] was > 100 µM each time. Moreover, the concentration for total growth inhibition (TGI) in assay [7], in assay [9] and in assay [8] was > 100 µM each time.
`O=C(OC[C@H]1O[C@@H](OC(=O)c2cc(O)c(O)c(O)c2)[C@H](OC(=O)c2cc(O)c(O)c(O)c2)[C@@H](OC(=O)c2cc(O)c(O)c(O)c2)[C@@H]1OC(=O)c1cc(O)c(O)c(O)c1)c1cc(O)c(O)c(O)c1`: the TGI in assay [1] is 52.5 µM; in [2], 14.2 µM; in assay [3] it was > 100 µM; in [4], > 100 µM; in [5], 30.1 µM; in assay [6] it was > 100 µM. Besides, the total growth inhibition concentration (TGI) is 56.7 µM in assay [7], 7.98 µM in assay [9] and > 100 µM in assay [8].
As to `CCOC(=O)[C@H]1Nc2ccc(OC)cc2C2c3ccccc3CC21` (some centres undefined), the TGI in assay [1], in assay [2], in [3], in [5], in assay [6] and in assay [7] was > 100 µM throughout. In addition, the TGI in assay [9] and in [8] was > 100 µM in each case.
Regarding `BrC1(Br)C2/C=C\CCCCC21` (centres undefined), the TGI in [1], in assay [2], in assay [4], in [5], in [6] and in assay [7] was > 100 µM each time. The total growth inhibition concentration (TGI) in assay [9] and in assay [8] was > 100 µM in each case.
With `CCOC(=O)COS(=O)(=O)C(F)(F)F`, the TGI in assay [1] was > 100 µM; in assay [2], > 100 µM; in [3] it was 35.1 µM; in assay [4], > 100 µM; in assay [5] it was > 100 µM; in [6] it was 49.1 µM. The concentration for total growth inhibition (TGI) in assay [7], in assay [9] and in assay [8] was > 100 µM each time.
As for `C[C-](O)O.O/C(=C\[C-](O)c1ccccc1)c1ccccc1.O/C(=C\[C-](O)c1ccccc1)c1ccccc1.[Nd+3]` (centres undefined), the GI50 in assay [1] was 12.6 µM; in [2] it was 3.59 µM; in assay [3] it was 4.96 µM; in [4], 2.03 µM; in [5], 12 µM; in [7] it was 12.7 µM. Besides, the results for the GI50 in [9] and in assay [8] were 1.24 µM and 5.99 µM, respectively. Moreover, the total growth inhibition concentration (TGI) in assay [1] is 33.1 µM; in assay [2], 28.9 µM; in assay [3], 20.1 µM; in assay [4], 8.7 µM; in assay [5] it was > 100 µM; in assay [7], 44.5 µM. In assay [9], the total growth inhibition concentration (TGI) turned out to be 7.93 µM.
Consider `Nc1nc(CCC(=O)Nc2cccc(C(F)(F)F)c2)cc(-c2ccc3ccccc3c2)n1`, for which the TGI in [1], in [2], in assay [3], in assay [4], in assay [5] and in assay [6] was > 100 µM throughout. For the same compound, the concentration for total growth inhibition (TGI) in assay [7], in assay [9] and in [8] was > 100 µM each time.
As for `O=c1[nH]c(=O)n(C2OC3COC2C3O)cc1F` (centres undefined), the total growth inhibition concentration (TGI) in assay [1], in assay [2], in assay [3], in assay [4], in assay [5] and in assay [7] was > 100 µM throughout. The total growth inhibition concentration (TGI) in [9] and in assay [8] was > 100 µM in each case.
Regarding `O=[N+]([O-])c1ccc2c(c1)[O][Sn][O]2`, the GI50 in assay [1] is > 150 µg/mL; in assay [2], 4.23 µg/mL; in assay [3], 16.8 µg/mL; in assay [4], 36.5 µg/mL; in assay [5], 139 µg/mL; in [7] it was 29.4 µg/mL. The GI50 in [9] was 29 µg/mL; in [8] it was > 150 µg/mL. For the same compound, the TGI was > 150 µg/mL in assay [1]; 69.5 µg/mL in assay [2]; > 150 µg/mL in [3]; > 150 µg/mL in assay [4]; > 150 µg/mL in assay [5]; > 150 µg/mL in [7]. In addition, the concentration for total growth inhibition (TGI) in [9] and in [8] was > 150 µg/mL in each case.
